Reference: patent publication US20050014847A1, “Ambroxol for the treatment of chronic nociceptive pain” (Boehringer Ingelheim International GmbH, priority 2003, published 2005)

Legend:
[1] = target: T1, human GluR1/2 receptors (Homo sapiens, UniProt P42261+P42262); test: Patch-Clamp inhibition of glutamate-induced membrane currents in HEK 293 cells; type: cell-based; conditions: HEK 293 cells expressing recombinant human GluR1/2, 1 mM glutamate for 1 s, holding potential −80 mV
T1 construct: expressed in transfected cells; host or cells: HEK 293
T1 sequence (P42261 19-906): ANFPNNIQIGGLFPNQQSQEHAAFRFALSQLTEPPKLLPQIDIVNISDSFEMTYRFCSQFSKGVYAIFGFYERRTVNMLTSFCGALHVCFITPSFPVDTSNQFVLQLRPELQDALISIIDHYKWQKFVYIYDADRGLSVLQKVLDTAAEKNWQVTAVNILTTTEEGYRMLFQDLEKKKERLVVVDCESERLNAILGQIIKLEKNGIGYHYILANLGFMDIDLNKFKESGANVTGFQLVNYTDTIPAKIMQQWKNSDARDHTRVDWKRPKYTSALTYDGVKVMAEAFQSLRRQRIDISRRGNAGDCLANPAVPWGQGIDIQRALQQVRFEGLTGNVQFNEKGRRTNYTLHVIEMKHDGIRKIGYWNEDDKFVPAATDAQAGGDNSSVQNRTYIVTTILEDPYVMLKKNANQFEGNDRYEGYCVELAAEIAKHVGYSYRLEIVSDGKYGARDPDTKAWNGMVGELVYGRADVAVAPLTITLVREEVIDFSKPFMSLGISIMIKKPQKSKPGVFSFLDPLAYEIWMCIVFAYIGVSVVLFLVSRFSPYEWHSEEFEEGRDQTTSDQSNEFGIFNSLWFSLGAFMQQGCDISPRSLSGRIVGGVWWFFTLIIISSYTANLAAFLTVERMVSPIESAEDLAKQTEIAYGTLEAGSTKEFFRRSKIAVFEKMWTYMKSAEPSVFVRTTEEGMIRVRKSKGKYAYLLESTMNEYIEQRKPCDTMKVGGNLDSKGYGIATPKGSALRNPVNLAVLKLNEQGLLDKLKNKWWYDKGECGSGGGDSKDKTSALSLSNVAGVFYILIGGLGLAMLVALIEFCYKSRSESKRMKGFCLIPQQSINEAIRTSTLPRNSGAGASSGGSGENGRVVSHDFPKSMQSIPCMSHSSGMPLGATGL
T1 sequence (P42262 22-883 limits assumed): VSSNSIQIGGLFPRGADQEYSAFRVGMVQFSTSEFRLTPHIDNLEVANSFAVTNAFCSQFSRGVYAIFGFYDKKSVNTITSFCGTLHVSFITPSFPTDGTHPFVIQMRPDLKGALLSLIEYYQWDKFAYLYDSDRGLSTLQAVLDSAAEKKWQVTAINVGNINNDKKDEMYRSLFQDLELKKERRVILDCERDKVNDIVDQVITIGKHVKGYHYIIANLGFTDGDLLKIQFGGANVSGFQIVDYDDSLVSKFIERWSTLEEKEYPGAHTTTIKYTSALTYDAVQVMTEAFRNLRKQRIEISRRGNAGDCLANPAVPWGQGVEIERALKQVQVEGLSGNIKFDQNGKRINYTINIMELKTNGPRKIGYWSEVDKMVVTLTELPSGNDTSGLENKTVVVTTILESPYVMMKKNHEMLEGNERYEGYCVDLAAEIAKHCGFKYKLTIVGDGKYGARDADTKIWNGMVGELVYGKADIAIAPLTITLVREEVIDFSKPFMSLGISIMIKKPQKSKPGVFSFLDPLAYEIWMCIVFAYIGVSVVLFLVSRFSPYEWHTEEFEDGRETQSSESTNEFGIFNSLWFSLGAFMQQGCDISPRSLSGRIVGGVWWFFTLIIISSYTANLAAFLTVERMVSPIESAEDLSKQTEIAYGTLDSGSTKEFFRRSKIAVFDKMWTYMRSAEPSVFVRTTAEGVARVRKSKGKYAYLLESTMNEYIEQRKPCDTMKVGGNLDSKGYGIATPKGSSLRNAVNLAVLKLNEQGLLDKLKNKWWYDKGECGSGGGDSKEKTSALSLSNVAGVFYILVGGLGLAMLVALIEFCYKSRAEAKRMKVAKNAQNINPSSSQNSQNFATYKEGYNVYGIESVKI
Protocol: Ionotropic glutamate receptors of the AMPA sub-type are also essential for the excitatory neurotransmission. […] HEK 293 cells which expressed functionally recombinant human GluR1/2 receptors were electrophysiologically investigated by the Patch-Clamp method ([…]). The administration of 1 mM glutamate (for 1 s at a holding potential of −80 mV) induced membrane currents which were inhibited by the joint administration of ambroxol.

[2] = test system: Tetrodotoxin-sensitive currents (sodium channels); type: cell-based, rat; conditions: read-out: IC50 tetrodotoxin-sensitive currents; neuron cultures from posterior root ganglia of adult rats

**Q.** Which “concentrations inhibiting glutamate-induced membrane currents” value [1] does the source give for `Nc1c(Br)cc(Br)cc1CN[C@H]1CC[C@H](O)CC1` [ambroxol, trans-4-(2-amino-3,5-dibromobenzylamino)cyclohexanol] here?
**A.** 30 to 1000 µM

**Q.** What about the IC50 [2] of the same compound?
**A.** > 100 µM
